Laboratory results reported in publication PMC4306947, “Synthesis and Antiproliferative Activity of Thiazolyl-bis-pyrrolo[2,3-b]pyridines and Indolyl-thiazolyl-pyrrolo[2,3-c]pyridines, Nortopsentin Analogues” (Marine Drugs, 2015).
Read-outs that look alike come from different tables or passages of the source.

Assays:
M14 = assay: NCI-60 in vitro tumor cell screen, M14; format: cell-based; conditions: Homo sapiens; M14, Melanoma
Description: (§1) All the synthesized thiazoles 1a–l, 2a–j, 3a–f and 4a–f were evaluated by the National Cancer Institute (Bethesda MD) for cytotoxicity against the NCI-60 cell line panel using standard protocols. Initially, all derivatives were tested at a single dose (10^−5 M) on the full panel of approximately 60 human tumor cell lines derived from 9 human cancer cell types, that have been grouped in disease sub-panels including leukemia, non-small-cell lung, colon, central nervous system (CNS), melanoma, ovarian, renal, prostate and breast cancers (data not shown). Compounds 1k and 4c were further selected for full evaluation at five concentration levels (10^−4–10^−8 M).
(§2) The antitumor activity of compounds 1k and 4c was given by three parameters for each cell line: GI50 (GI50 is the molar concentration of the compound that inhibits 50% net cell growth), TGI (TGI is the molar concentration of the compound leading to total inhibition of net cell growth), and LC50 (LC50 is the molar concentration of the compound that induces 50% net cell death). The average values of mean graph midpoint (MG_MID) were calculated for each of these parameters.

HCT-15 = assay: NCI-60 in vitro tumor cell screen, HCT-15; format: cell-based; conditions: Homo sapiens; HCT-15, Colon Cancer
Description: as §1, §2

HCT-116 cells [1] = assay: Cell cycle analysis by flow cytometry (propidium iodide); format: cell-based, human; conditions: 24 h, concentrations above and below GI50
Description: Cell cycle stage was analyzed by flow cytometry. HCT-116 cells (5.0 × 10^4 cells/cm^2) were seeded in triplicate in 24-wells culture plates. After an overnight incubation, the cells were washed with fresh medium and incubated with compounds 1k and 4c in RPMI for 24 h. Then cells were harvested by trypsinization. Aliquots of 1 × 10^6 cells were washed with PBS and incubated in the dark in a PBS solution containing 20 μg/mL propidium iodide (PI) and 200 μg/mL RNase, for 30 min, at room temperature. Then samples of at least 1.0 × 10^4 cells were subjected to fluorescence-activated cell sorting (FACS) analysis by Epics XL™ flow cytometer using Expo32 software (Beckman Coulter, Fullerton, CA, USA).

PC-3 = assay: NCI-60 in vitro tumor cell screen, PC-3; format: cell-based; conditions: Homo sapiens; PC-3, Prostate Cancer
Description: as §1, §2

NCI-H460 = assay: NCI-60 in vitro tumor cell screen, NCI-H460; format: cell-based; conditions: Homo sapiens; NCI-H460, Non-Small Cell Lung Cancer
Description: as §1, §2

HCT-116 cells [2] = assay: Mitochondrial transmembrane potential (DiOC6 flow cytofluorometry); format: cell-based, human; conditions: 24 h
Description: Changes of mitochondrial transmembrane potential (Δψm) were assessed by flow cytofluorometry, using the cationic lipophilic dye 3,3′-dihexyloxacarbocyanine iodide(3) (DiOC6) (Molecular Probes, Inc., Life Technologies Italia, Monza, Italy) which accumulates in the mitochondrial matrix. Changes in mitochondrial membrane potential are indicated by a reduction in the DiOC6-induced fluorescence intensity. After 24 h treatment, HCT116 cells were incubated with DiOC6 at a 40 nmol/L final concentration, for 15 min at 37 °C. After centrifugation, cells were washed with PBS and suspended in 500 μL PBS. Fluorescent intensities were analysed in at least 1 × 10^4 cells for each sample.

K-562 = assay: NCI-60 in vitro tumor cell screen, K-562; format: cell-based; conditions: Homo sapiens, K562; K-562, Leukemia
Description: as §1, §2

SNB-19 = assay: NCI-60 in vitro tumor cell screen, SNB-19; format: cell-based; conditions: Homo sapiens; SNB-19, CNS Cancer
Description: as §1, §2

SF-295 = assay: NCI-60 in vitro tumor cell screen, SF-295; format: cell-based; conditions: Homo sapiens; SF-295, CNS Cancer
Description: as §1, §2

UACC-62 = assay: NCI-60 in vitro tumor cell screen, UACC-62; format: cell-based; conditions: Homo sapiens; UACC-62, Melanoma
Description: as §1, §2

SW-620 = assay: NCI-60 in vitro tumor cell screen, SW-620; format: cell-based; conditions: Homo sapiens; SW-620, Colon Cancer
Description: as §1, §2

NCI-60 cell line panel = assay: NCI-60 cell line panel, summary over the full panel or subpanel; format: cell-based, human; conditions: for GI50: Homo sapiens
Description: as §1, §2

ACHN = assay: NCI-60 in vitro tumor cell screen, ACHN; format: cell-based; conditions: Homo sapiens, Renal Cancer
Description: as §1, §2

NCI-H226 = assay: NCI-60 in vitro tumor cell screen, NCI-H226; format: cell-based; conditions: Homo sapiens; NCI-H226, Non-Small Cell Lung Cancer
Description: as §1, §2

IGROV1 = assay: NCI-60 in vitro tumor cell screen, IGROV1; format: cell-based; conditions: Homo sapiens, IGROV-1; IGROV1, Ovarian Cancer
Description: as §1, §2

HS 578T = assay: NCI-60 in vitro tumor cell screen, HS 578T; format: cell-based; conditions: Homo sapiens, Breast Cancer
Description: as §1, §2

OVCAR-8 = assay: NCI-60 in vitro tumor cell screen, OVCAR-8; format: cell-based; conditions: Homo sapiens; OVCAR-8, Ovarian Cancer
Description: as §1, §2

SF-539 = assay: NCI-60 in vitro tumor cell screen, SF-539; format: cell-based; conditions: Homo sapiens; SF-539, CNS Cancer
Description: as §1, §2

LOX IMVI = assay: NCI-60 in vitro tumor cell screen, LOX IMVI; format: cell-based; conditions: Homo sapiens, Melanoma
Description: as §1, §2

BT-549 = assay: NCI-60 in vitro tumor cell screen, BT-549; format: cell-based; conditions: Homo sapiens; BT-549, Breast Cancer
Description: as §1, §2

786-0 = assay: NCI-60 in vitro tumor cell screen, 786-0; format: cell-based; conditions: Homo sapiens; 786-0, Renal Cancer
Description: as §1, §2

HCT-116 cells [3] = assay: Phosphatidylserine exposure, Annexin V-FITC/PI flow cytometry; format: cell-based, human; conditions: 24 h
Description: The apoptosis-induced PS externalization to the cell surface was measured by flow cytometry by double staining with Annexin V-Fluorescein isothiocyanate (Annexin V-FITC)/propidium iodide (PI). Annexin V binding to phosphatidylserine is used to identify the earliest stage of apoptosis. […] After 24 h treatment, HCT-116 cells were harvested by trypsinization and adjusted at 1.0 × 10^6 cells/mL with combining buffer according to the manufacturer instructions (eBioscience, San Diego, CA, USA). One hundred μL of cell suspensions were added to a new tube, and incubated with Annexin V-FITC and PI solution at room temperature in the dark for 15 min. Then samples of at least 1.0 × 10^4 cells were subjected to FACS analysis using appropriate 2-bidimensional gating method.

MOLT-4 = assay: NCI-60 in vitro tumor cell screen, MOLT-4; format: cell-based; conditions: Homo sapiens; MOLT-4, Leukemia
Description: as §1, §2

CCRF-CEM = assay: NCI-60 in vitro tumor cell screen, CCRF-CEM; format: cell-based; conditions: Homo sapiens, Leukemia
Description: as §1, §2

HL-60(TB) = assay: NCI-60 in vitro tumor cell screen, HL-60(TB); format: cell-based; conditions: Homo sapiens, Leukemia
Description: as §1, §2

OVCAR-5 = assay: NCI-60 in vitro tumor cell screen, OVCAR-5; format: cell-based; conditions: Homo sapiens; OVCAR-5, Ovarian Cancer
Description: as §1, §2

[4] = concentration GI30, control 3.9%
[5] = concentration GI70, control 3.9%
[6] = mean over the NCI full panel, read-out: GI50 mean value
[7] = range over the NCI full panel, read-out: GI50 values against most of the human cell lines (range)

Structure (SMILES) | GI50 (M14) | GI50 (HCT-15) | alteration of cell cycle distribution (HCT-116 cells [1]) | GI50 (PC-3) | GI50 (NCI-H460) | mitochondrial transmembrane potential (Δψm) loss, AQ (HCT-116 cells [2]; [4]) | mitochondrial transmembrane potential (Δψm) loss, AQ (HCT-116 cells [2]; [5]) | GI50 (K-562) | GI50 (SNB-19) | GI50 (SF-295) | GI50 (UACC-62) | GI50 (SW-620) | GI50 (NCI-60 cell line panel; [6]) | GI50 (NCI-60 cell line panel; [7]) | percentage of sensitive cell lines out of the total number of cell lines investigated (NCI-60 cell line panel; NCI full panel) | GI50 (ACHN) | GI50 (NCI-H226) | GI50 (IGROV1) | GI50 (HS 578T) | GI50 (OVCAR-8) | further results
Cn1cc(-c2csc(-c3c[nH]c4ncccc34)n2)c2cc(Br)cnc21 [Compound 1k, 5-Bromo-1-methyl-3-[2-(1H-pyrrolo[2,3-b]pyridin-3-yl)-1,3-thiazol-4-yl]-1H-pyrrolo[2,3-b]pyridine] | 4.06 µM | 13.7 µM | dose-dependent accumulation of cells in G2/M phase | 4.35 µM | 2.98 µM | 26.0% | 35.3% | 8.76 µM | 6.74 µM | 3.01 µM | 3.47 µM | 4.46 µM | 5.26 µM | 0.81 to 27.7 µM | 89% | 2.35 µM | 1.97 µM | 2.21 µM | 2.43 µM | 3.72 µM | GI50 (SF-539): 27.7 µM; GI50 (LOX IMVI): 4.26 µM; GI50 (BT-549): 20.5 µM; GI50 (786-0): 9.65 µM; apoptosis (Annexin V-FITC/PI staining) (HCT-116 cells [3]): percentage of cells in late apoptosis increased; GI50 (MOLT-4): > 100 µM; GI50 (CCRF-CEM): 6.81 µM; GI50 (HL-60(TB)): > 100 µM; GI50 (OVCAR-5): > 100 µM
Clc1nccc2c(-c3csc(-c4c[nH]c5ccc(Br)cc45)n3)c[nH]c12 [Compound 4c, 3-[2-(5-Bromo-1H-indol-3-yl)-1,3-thiazol-4-yl]-7-chloro-1H-pyrrolo[2,3-c]pyridine] | 2.22 µM | 1.4 µM | dose-dependent accumulation of cells in G1 phase | 3.86 µM | 2.16 µM | 3.8% | 14.7% | 2.73 µM | 3.25 µM | 2.48 µM | 2.19 µM | 1.92 µM | 2.59 µM | 0.93 to 4.7 µM | 100% | 2.02 µM | 2.4 µM | 2.51 µM | 3.7 µM | 3.65 µM | GI50 (NCI-60 cell line panel; all renal cancer subpanel cell lines, read-out: GI50 range, renal cancer subpanel): 0.93 to 4.16 µM; percentage of cell lines with positive LC50 values (NCI-60 cell line panel; NCI full panel, data not shown): 81%; percentage of cell lines with positive TGI values (NCI-60 cell line panel; NCI full panel, data not shown): 98%; GI50 (SF-539): 1.87 µM; GI50 (LOX IMVI): 1.63 µM; GI50 (BT-549): 4.7 µM; GI50 (786-0): 1.37 µM; apoptosis (Annexin V-FITC/PI staining) (HCT-116 cells [3]): evident only at high concentrations (GI70); GI50 (MOLT-4): 3.02 µM; GI50 (CCRF-CEM): 3.16 µM; GI50 (HL-60(TB)): 2.64 µM; GI50 (OVCAR-5): 3.14 µM
